Results as given in patent US8158657B2, “Heterocycles substituted pyridine derivatives and antifungal agent containing thereof” (Eisai R&D Management Co., Ltd., priority 2005, dated 2012).
Values after ≈ are worked out from the molar mass of the structure shown.

Columns and labels:
[1] = test system: C. albicans CAF2-1 strain; assay: Anti-Candida activity, MIC measurement; format: cell-based; settings: CAF21STRAIN, C. albicans CAF2-1, RPMI1640, 42-48 hours at 35° C., visual inspection, read-out: Anti-Candida Activity (minimum inhibitory concentration, MIC)
Summary of the method: (§1)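 C. albicans CAF2-1 was grown 48 h at 30° C. in SDB and diluted in RPMI1640 to 1.2×10^3 cells/mL. Frozen A. fumigatus Tsukuba was diluted to 4.5×10^3 cells/mL. Compounds, two-fold serially diluted in DMSO from 2.5 mg/mL, were cultured aerobically with fungi for 42-48 h at 35° C.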

[2] = test system: A. fumigatus Tsukuba strain; assay: Anti-Aspergillus activity, MIC measurement; format: cell-based; settings: RPMI1640, 42-48 hours at 35° C., visual inspection, read-out: Anti-Aspergillus Activity (minimum inhibitory concentration, MIC)
Summary of the method: as §1

[3] = test system: C. albicans E81022 strain; assay: Experimental systemic candidal infection model in mice; format: in vivo; settings: peroral, 3 times every 4 hours, female ICR mice, observed until 14 days after infection
Procedure: A standing culture of C. albicans E81022 strain was carried out for 48 hours at 30° C. in sabouraud dextrose agar medium (SDA), the recovered fungal cells were suspended in sterilized physiological saline. By counting the fungal number on cytometry plate, the suspension was diluted to 2×10^7 cells/mL with sterilized physiological saline to serve fungal inoculum.
The fungal inoculum was used in the amounts of 0.2 mL to inoculate 4.5 to 5.5 week-old female ICR mice in the tail vein (4×10^6 cells/mouse).
From 0.5 to 1 hour after fungal inoculation, 0.2 mL of agent solution (dissolved or suspended in sterilized physiological saline containing 6.5% dimethyl sulfoxide and 3.5% Tween 80) was administered into the stomach using a peroral probe, 3 times every 4 hours. The agent concentration was 2.5 mg/kg or 10 mg/kg, and the number of animals in one group was 5 animals.
The protective effect was determined by observing life/death until 14 days after infection and calculating the mean survival days.

SMILES	MIC [1] [µg/mL]	MIC [2] [µg/mL]	Mean Survival Days ([3]; 10 mg/kg) [days]	Mean Survival Days ([3]; 2.5 mg/kg) [days]
Nc1ncccc1-c1cnn(Cc2ccc(OCc3ccccc3)cc2)c1 [Example 31, 3-(1-(4-Benzyloxy-benzyl)-1H-pyrazol-4-yl)-pyridin-2-ylamine]	0.2 (≈ 0.561 µM)	0.39 (≈ 1.09 µM)	13.0	–
Nc1ncccc1-c1cnn(Cc2ccc(COc3ccccn3)cc2)c1 [Example 32, 3-(1-(4-(Pyridin-2-yloxymethyl)-benzyl)-1H-pyrazol-4-yl)-pyridin-2-ylamine]	0.2 (≈ 0.56 µM)	0.78 (≈ 2.18 µM)	12.2	10.2
CCCCOCc1ccc(Cn2cc(-c3cccnc3N)cn2)cc1 [Example 33, 3-(1-(4-Butoxymethyl-benzyl)-1H-pyrazol-4-yl)-pyridin-2-ylamine]	0.39 (≈ 1.16 µM)	0.78 (≈ 2.32 µM)	8.4	2.4
Nc1ccc(-c2cnn(Cc3ccc(OCc4ccccc4)cc3)c2)c(N)n1 [Example 36, 3-(1-(4-Benzyloxy-benzyl)-1H-pyrazol-4-yl)-pyridin-2,6-diamine]	0.39 (≈ 1.05 µM)	0.78 (≈ 2.1 µM)	14.0	9.4
Nc1ccc(-c2cnn(Cc3ccc(COc4ccccn4)cc3)c2)c(N)n1 [Example 37, 3-(1-(4-(Pyridin-2-yloxymethyl)-benzyl)-1H-pyrazol-4-yl)-pyridin-2,6-diamine]	0.39 (≈ 1.05 µM)	1.56 (≈ 4.19 µM)	14.0	5.4
CCCCOCc1ccc(Cn2cc(-c3ccc(N)nc3N)cn2)cc1 [Example 38, 3-(1-(4-Butoxymethyl-benzyl)-1H-pyrazol-4-yl)-pyridin-2,6-diamine]	0.78 (≈ 2.22 µM)	1.56 (≈ 4.44 µM)	10.0	4.8
Nc1ccc(-c2cc(Cc3ccc(Oc4ccccc4)nc3)no2)c(N)n1 [Example 40, 3-(3-(6-Phenoxy-pyridin-3-ylmethyl)-isoxazol-5-yl)-pyridin-2,6-diamine]	0.39 (≈ 1.09 µM)	0.39 (≈ 1.09 µM)	14.0	11.6
Nc1ncccc1-c1cc(Cc2ccc(OCc3ccc(F)cn3)cc2)no1 [Example 41, 3-(3-(4-(5-Fluoro-pyridin-2-ylmethoxy)-benzyl)-isoxazol-5-yl)-pyridin-2-ylamine]	0.39 (≈ 1.04 µM)	0.2 (≈ 0.531 µM)	11.8	11.4
Cc1ccnc(OCc2ccc(Cc3cc(-c4cccnc4N)on3)cc2)c1 [Example 43, 3-(3-(4-(4-Methyl-pyridin-2-yloxymethyl)-benzyl)-isoxazol-5-yl)-pyridin-2-ylamine]	0.2 (≈ 0.537 µM)	0.39 (≈ 1.05 µM)	14.0	10.6
Nc1ncccc1-c1cc(Cc2ccc(OCc3cccc(F)n3)cc2)no1 [Example 45, 3-(3-(4-(6-Fluoro-pyridin-2-ylmethoxy)-benzyl)-isoxazol-5-yl)-pyridin-2-ylamine]	0.39 (≈ 1.04 µM)	0.2 (≈ 0.531 µM)	10.8	10.6
Nc1ncccc1-c1cc(Cc2ccc(OCc3cc(Cl)ccn3)cc2)no1 [Example 51, 3-(3-(4-(4-Chloro-pyridin-2-ylmethoxy)-benzyl)-isoxazol-5-yl)-pyridin-2-ylamine]	0.1 (≈ 0.255 µM)	0.39 (≈ 0.993 µM)	14.0	13.5
Nc1ncccc1-c1cc(Cc2ccc(OCc3cccc(Cl)n3)cc2)no1 [Example 52, 3-(3-(4-(6-Chloro-pyridin-2-ylmethoxy)-benzyl)-isoxazol-5-yl)-pyridin-2-ylamine]	0.39 (≈ 0.993 µM)	0.39 (≈ 0.993 µM)	13.4	10.6
Nc1ncccc1-c1cc(Cc2ccc(COc3ccccc3)nc2)no1 [Example 54, 3-(3-(6-Phenoxymethyl-pyridin-3-ylmethyl)-isoxazol-5-yl)-pyridin-2-ylamine]	0.1 (≈ 0.279 µM)	0.39 (≈ 1.09 µM)	13.6	13.0
Nc1ncccc1-c1cc(Cc2ccc(COc3cccc(F)n3)cc2)no1 [Example 55, 3-(3-(4-(6-Fluoro-pyridin-2-yloxymethyl)-benzyl)-isoxazol-5-yl)-pyridin-2-ylamine]	0.05 (≈ 0.133 µM)	0.1 (≈ 0.266 µM)	14.0	13.8
Nc1ncccc1-c1cc(Cc2ccc(OCc3ccc(F)cc3)nc2)no1 [Example 58, 3-(3-(6-(4-Fluoro-benzyloxy)-pyridin-3-ylmethyl)-isoxazol-5-yl)-pyridin-2-ylamine]	0.78 (≈ 2.07 µM)	0.1 (≈ 0.266 µM)	12.0	3.8
Nc1ncccc1-c1cc(Cc2ccc(Cc3ccc(Cl)o3)cc2)no1 [Example 62, 3-(3-(4-(5-Chloro-furan-2-ylmethyl)-benzyl)-isoxazol-5-yl)-pyridin-2-ylamine]	0.2 (≈ 0.547 µM)	0.2 (≈ 0.547 µM)	–	10.2
Nc1ncccc1-c1cc(Cc2ccc(CNc3ccccc3)cc2)no1 [Example 73, 3-(3-(4-Phenylaminomethyl-benzyl)-isoxazol-5-yl)-pyridin-2-ylamine]	0.1 (≈ 0.281 µM)	0.39 (≈ 1.09 µM)	12.6	4.4
Cc1ccnc(OCc2ccc(Cc3cc(-c4ccc(N)nc4N)on3)cc2)c1 [Example 102, 3-(3-(4-(4-Methyl-pyridin-2-yloxymethyl)-benzyl)-isoxazol-5-yl)-pyridin-2,6-diamine]	0.2 (≈ 0.516 µM)	0.39 (≈ 1.01 µM)	13.0	13.2
Nc1ccc(-c2cc(Cc3ccc(OCc4cccc(F)n4)cc3)no2)c(N)n1 [Example 104, 3-(3-(4-(6-Fluoro-pyridin-2-ylmethoxy)-benzyl)-isoxazol-5-yl)-pyridin-2,6-diamine]	0.78 (≈ 1.99 µM)	0.78 (≈ 1.99 µM)	13.2	8.2
Cc1ccc(Cc2ccc(Cc3cc(-c4ccc(N)nc4N)on3)cc2)o1 [Example 105, 3-(3-(4-(5-Methyl-furan-2-ylmethyl)-benzyl)-isoxazol-5-yl)-pyridin-2,6-diamine]	0.2 (≈ 0.555 µM)	0.2 (≈ 0.555 µM)	12.8	5.4
Nc1ccc(-c2cc(Cc3ccc(OCc4cc(Cl)ccn4)cc3)no2)c(N)n1 [Example 109, 3-(3-(4-(4-Chloro-pyridin-2-ylmethoxy)-benzyl)-isoxazol-5-yl)-pyridin-2,6-diamine]	0.39 (≈ 0.956 µM)	0.78 (≈ 1.91 µM)	11.8	11.0
Nc1ccc(-c2cc(Cc3ccc(OCc4cccc(Cl)n4)cc3)no2)c(N)n1 [Example 110, 3-(3-(4-(6-Chloro-pyridin-2-ylmethoxy)-benzyl)-isoxazol-5-yl)-pyridin-2,6-diamine]	0.78 (≈ 1.91 µM)	0.78 (≈ 1.91 µM)	–	12.0
Nc1ccc(-c2cc(Cc3ccc(COc4ccccc4)nc3)no2)c(N)n1 [Example 111, 3-(3-(6-Phenoxymethyl-pyridin-3-ylmethyl)-isoxazol-5-yl)-pyridin-2,6-diamine]	0.39 (≈ 1.04 µM)	0.78 (≈ 2.09 µM)	–	13.6
Nc1ccc(-c2cc(Cc3ccc(OCc4ccc(F)cn4)cc3)no2)c(N)n1 [Example 112, 3-(3-(4-(5-Fluoro-pyridin-2-ylmethoxy)-benzyl)-isoxazol-5-yl)-pyridin-2,6-diamine]	0.78 (≈ 1.99 µM)	0.39 (≈ 0.996 µM)	12.2	–
Nc1ccc(-c2cc(Cc3ccn(Cc4ccccc4)c3)no2)c(N)n1 [Example 115, 3-(3-(1-Benzyl-1H-pyrrol-3-ylmethyl)-isoxazol-5-yl)-pyridin-2,6-diamine]	0.1 (≈ 0.29 µM)	0.2 (≈ 0.579 µM)	13.2	10.8
Nc1ccc(-c2cc(Cc3ccc(OCc4ccc(F)cc4)nc3)no2)c(N)n1 [Example 116, 3-(3-(6-(4-Fluoro-benzyloxy)-pyridin-3-ylmethyl)-isoxazol-5-yl)-pyridin-2,6-diamine]	0.78 (≈ 1.99 µM)	0.2 (≈ 0.511 µM)	12.6	4.6
Nc1ccc(-c2cc(Cc3ccc(Cc4ccc(Cl)o4)cc3)no2)c(N)n1 [Example 120, 3-(3-(4-(5-Chloro-furan-2-ylmethyl)-benzyl)-isoxazol-5-yl)-pyridin-2,6-diamine]	0.39 (≈ 1.02 µM)	0.2 (≈ 0.525 µM)	13.4	3.2
Nc1ccc(-c2cc(Cc3ccc(Oc4cccc(F)c4)nc3)no2)c(N)n1 [Example 131, 3-(3-(6-(3-Fluoro-phenoxy)-pyridin-3-ylmethyl)-isoxazol-5-yl)-pyridin-2,6-diamine]	0.2 (≈ 0.53 µM)	0.2 (≈ 0.53 µM)	12.8	12.6
